In assay [1] the target is T1, glutathione S-transferase (GST)-fused full-length human Syk protein (Homo sapiens, UniProt P43405).
T1 construct: (GST)-fused full-length human Syk protein; GST (glutathione S-transferase); purchased Carna Biosciences
Nature of the assay: Syk enzyme assay. The format is biochemical. As to conditions: Syk enzyme assay, Test Example 1; read-out: IC50 of Syk-inhibitory activity. The method, boiled down: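 IC50 values come from a time-resolved FRET readout (615 and 665 nm) of substrate phosphorylation, measured after an EDTA stop and 1 h antibody binding. The kinase reaction ran 40 min at room temperature with 27 μM ATP and 0.4 μM biotin-peptide, following a 15 min compound preincubation with baculovirus-made GST-full-length human Syk.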

The subject of a further assay is THP-1 cells. Nature of the assay: TNFα generation assay. The format is cell-based, human. The following applies: Homo sapiens, THP-1, THP-1 cells; Table 22; read-out: IC50 in TNFα generation assay. The method, boiled down:
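Secreted TNFα in supernatant quantified by ELISA or AlphaLISA after 7 h culture on human IgG-coated wells (10 μg/ml coating). Cells were IFN-γ-differentiated THP-1 (10 ng/ml, 2 days), exposed to compound for 30 min at room temperature before plating.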

Consider `CCC[C@@H](Nc1nc(Nc2cncc(-c3ccccc3F)c2)c(C(N)=O)cc1F)[C@H](C)N` [Example 006-222, 6-(((2S,3R)-2-aminohexan-3-yl)amino)-5-fluoro-2-((5-(2-fluorophenyl)pyridin-3-yl)amino)nicotinamide], for which the IC50 in assay [1] is under 10 nM; in the assay on THP-1 cells, 65 to 130 nM.

Take `COCCOc1cc(Nc2nc(N[C@H](c3ccc(F)cc3)[C@H](C)N)c(F)cc2C(N)=O)ccn1` [Example 006-559, 6-(((1R,2S)-2-amino-1-(4-fluorophenyl)propyl)amino)-5-fluoro-2-((2-(2-methoxyethoxy)pyridin-4-yl)amino)nicotinamide]: the IC50 is under 10 nM in assay [1] and 65 to 130 nM in the assay with THP-1 cells.

Consider `Cc1cc(Nc2nc(N[C@@H]3CCCC[C@@H]3N)c(F)cc2C(N)=O)cnc1-n1nccn1` [Example 006-500, 6-(((1R,2S)-2-aminocyclohexyl)amino)-5-fluoro-2-((5-methyl-6-(2H-1,2,3-triazol-2-yl)pyridin-3-yl)amino)nicotinamide], for which the IC50 fell in the range of 10 to 50 nM in assay [1] and 65 to 130 nM with THP-1 cells.

Consider `COc1cc(Nc2nc(N[C@H](c3ccc(F)cc3)[C@H](C)N)c(F)cc2C(N)=O)ccn1` [Example 006-556, 6-(((1R,2S)-2-amino-1-(4-fluorophenyl)propyl)amino)-5-fluoro-2-((2-methoxypyridin-4-yl)amino)nicotinamide], for which the IC50 in assay [1] is under 10 nM; with THP-1 cells, 65 to 130 nM.

With `CCOc1cc(Nc2nc(N[C@@H](CN)CC(C)C)c(F)cc2C(N)=O)ccn1` [Example 006-145, (R)-6-((1-amino-4-methylpentan-2-yl)amino)-2-((2-ethoxypyridin-4-yl)amino)-5-fluoronicotinamide], the IC50 is under 10 nM in assay [1] and 65 to 130 nM in the assay on THP-1 cells.

For `NC(=O)c1cc(F)c(N[C@@H]2CCCC[C@@H]2N)nc1Nc1cc(-n2ccnn2)nc2[nH]ccc12` (relative stereo) [Example 004-068, 2-((6-(1H-1,2,3-triazol-1-yl)-1H-pyrrolo[2,3-b]pyridin-4-yl)amino)-6-(cis-2-aminocyclohexylamino)-5-fluoronicotinamide], the IC50 in assay [1] was under 10 nM; in the assay with THP-1 cells it was 65 to 130 nM.

For the compound `NC(=O)c1cc(F)c(N[C@@H]2CCCC[C@@H]2N)nc1Nc1cccnc1` (relative stereo) [Example 004-096, 6-(cis-2-aminocyclohexylamino)-5-fluoro-2-((pyridin-3-yl)amino)nicotinamide], the IC50 in assay [1] was 10 to 50 nM; with THP-1 cells, 65 to 130 nM.

For `NC(=O)c1cc(F)c(N[C@@H]2CCCC[C@@H]2N)nc1Nc1ccnc(Cl)c1` (relative stereo) [Example 006-163, 6-((cis-2-aminocyclohexyl)amino)-2-((2-chloropyridin-4-yl)amino)-5-fluoronicotinamide], the IC50 is under 10 nM in assay [1] and 65 to 130 nM in the assay on THP-1 cells.

As for `NC(=O)c1cc(F)c(N[C@@H]2CCCC[C@@H]2N)nc1Nc1cncc(-c2ccoc2)c1` (relative stereo) [Example 004-078, 6-(cis-2-aminocyclohexylamino)-5-fluoro-2-((5-(furan-3-yl)pyridin-3-yl)amino)-nicotinamide], the IC50 in assay [1] was under 10 nM; with THP-1 cells it was 65 to 130 nM.

With `CCCc1nn(C)c2ccc(Nc3nc(N[C@@H]4CCCC[C@@H]4N)c(F)cc3C(N)=O)cc12` [Example 006-456, 6-(((1R,2S)-2-aminocyclohexyl)amino)-5-fluoro-2-((1-methyl-3-propyl-1H-indazol-5-yl)amino)nicotinamide], the IC50 in assay [1] is under 10 nM; with THP-1 cells it was 130 to 200 nM.

As to `CCn1nc(C)c2cc(Nc3nc(N[C@H](C4CC4)[C@H](C)N)c(F)cc3C(N)=O)ccc21` [Example 006-583, 6-(((1R,2S)-2-amino-1-cyclopropylpropyl)amino)-2-((1-ethyl-3-methyl-1H-indazol-5-yl)amino)-5-fluoronicotinamide], the IC50 in assay [1] is under 10 nM; in the assay on THP-1 cells, under 65 nM.

Regarding `COCCOc1cccc(-c2cncc(Nc3nc(N[C@@H]4CCCC[C@@H]4N)c(F)cc3C(N)=O)c2)c1` (relative stereo) [Example 004-109, 6-(cis-2-aminocyclohexylamino)-5-fluoro-2-((5-(3-(2-methoxyethoxy)phenyl)pyridin-3-yl)-amino)nicotinamide], the IC50 was under 10 nM in assay [1] and 130 to 200 nM with THP-1 cells.

`NC(=O)c1cc(F)c(NC2CCCCC2N)nc1Nc1ccc2c(c1)c(F)nn2CCF` (centres unmarked) [Example 002-204]: the results for the IC50 (in assay [1]; with THP-1 cells) were under 10 nM and 65 to 130 nM, respectively.

For the compound `NC(=O)c1cc(F)c(NCC(N)C(F)(F)F)nc1Nc1ccc2ncccc2c1` (centres unmarked) [Example 014-016, 6-((2-amino-3,3,3-trifluoropropyl)amino)-5-fluoro-2-((quinolin-6-yl)amino)nicotinamide], the results for the IC50 (in assay [1]; in the assay on THP-1 cells) were under 10 nM and 65 to 130 nM, respectively.

Turning to `CCOc1nn(CC)c2ccc(Nc3nc(N[C@H](CC)[C@H](C)N)c(F)cc3C(N)=O)cc12` [Example 006-593, 6-(((2S,3R)-2-aminopentan-3-yl)amino)-2-((3-ethoxy-1-ethyl-1H-indazol-5-yl)amino)-5-fluoronicotinamide], the IC50 in assay [1] was under 10 nM; in the assay with THP-1 cells, 65 to 130 nM.

As to `CCC[C@@H](Nc1nc(Nc2cnc(C)c(C3CC3)c2)c(C(N)=O)cc1F)[C@H](C)N` [Example 006-250, 6-(((2S,3R)-2-aminohexan-3-yl)amino)-2-((5-cyclopropyl-6-methylpyridin-3-yl)amino)-5-fluoronicotinamide], the IC50 is under 10 nM in assay [1] and 130 to 200 nM in the assay with THP-1 cells.

Consider `CCC[C@@H](Nc1nc(Nc2cccc3c2cnn3C)c(C(N)=O)cc1F)[C@H](C)N` [Example 006-251, 6-(((2S,3R)-2-aminohexan-3-yl)amino)-5-fluoro-2-((1-methyl-1H-indazol-4-yl)amino)nicotinamide], for which the IC50 in assay [1] is under 10 nM; with THP-1 cells, under 65 nM.

Turning to `CCn1ncc2ccc(Nc3nc(NC4CCCCC4N)c(F)cc3C(N)=O)cc21` (centres unmarked) [Example 002-185], the IC50 is under 10 nM in assay [1] and under 65 nM with THP-1 cells.

`COc1ncc(Nc2nc(N[C@@H]3CCCC[C@@H]3N)c(F)cc2C(N)=O)cc1N1CCOCC1` [Example 006-564, 6-(((1R,2S)-2-aminocyclohexyl)amino)-5-fluoro-2-((6-methoxy-5-mopholinopyridin-3-yl)amino)nicotinamide]: the IC50 was in the range of 100 to 1000 nM in assay [1] and 65 to 130 nM in the assay on THP-1 cells.

Turning to `CCC[C@@H](Nc1nc(Nc2ccnc(OCC)c2)c(C(N)=O)cc1F)[C@H](C)N` [Example 006-309, 6-(((2S,3R)-2-aminohexan-3-yl)amino)-2-((2-ethoxypyridin-4-yl)amino)-5-fluoronicotinamide], the IC50 was under 10 nM in assay [1] and 65 to 130 nM with THP-1 cells.

With `CC(C)C[C@@H](Nc1nc(Nc2ccc3ncsc3c2)c(C(N)=O)cc1F)C(N)=O` [Example 012-005], the IC50 in assay [1] lay in the range of 10 to 50 nM; with THP-1 cells it was 130 to 200 nM.

For the compound `C[C@H](N)[C@@H](CC1CC1)Nc1nc(Nc2ccnc(-n3cncn3)c2)c(C(N)=O)cc1F` [Example 006-353, 2-((2-(1H-1,2,4-triazol-1-yl)pyridin-4-yl)amino)-6-(((2R,3S)-3-amino-1-cyclopropylbutan-2-yl)amino)-5-fluoronicotinamide], the IC50 in assay [1] is under 10 nM; with THP-1 cells, under 65 nM.

Source of the values: patent US8895585B2, “Nicotinamide derivative or salt thereof” (FUJIFILM Corporation, priority 2010, dated 2014).
